Assay results published in PubChem BioAssay AID248 (DTP/NCI, 2004).
“And” between values parts separate entries of the source, which are not always exact repeats. Identical values can stand only once. Inconclusive results and toxic doses are left out.

System: L1210 leukemia ip in BDF1 mice, survival T/C
Assay: NCI In Vivo Anticancer Drug Screen. Data for tumor model L1210 Leukemia (intraperitoneal) in B6D2F1 (BDF1) mice
Conditions: endpoint: mean survival time, higher = longer survival
Method in brief: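 Read-out is survival time, reported as the treated-group measurement over the vehicle-control measurement.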

[1] = dose: 100.0 mg/kg/injection, schedule: Q01DX009 (ip), vehicle: saline
[2] = dose: 200.0 mg/kg/injection, schedule: Q01DX009 (ip), vehicle: saline
[3] = dose: 100.0 mg/kg/injection, schedule: Q04DX002 (ip), vehicle: Klucel (hydroxypropylcellulose) (HPC)
[4] = dose: 200.0 mg/kg/injection, schedule: Q04DX002 (ip), vehicle: Klucel (hydroxypropylcellulose) (HPC)
[5] = dose: 100.0 mg/kg/injection, schedule: Q01DX001 (ip), vehicle: saline
[6] = dose: 200.0 mg/kg/injection, schedule: Q01DX001 (ip), vehicle: saline
[7] = dose: 400.0 mg/kg/injection, schedule: Q01DX001 (ip), vehicle: saline
[8] = dose: 100.0 mg/kg/injection, schedule: Q04DX003 (ip), vehicle: saline
[9] = dose: 200.0 mg/kg/injection, schedule: Q04DX003 (ip), vehicle: saline
[10] = dose: 400.0 mg/kg/injection, schedule: Q04DX003 (ip), vehicle: saline
[11] = dose: 100.0 mg/kg/injection, schedule: Q01DX009 (ip), vehicle: Klucel (hydroxypropylcellulose) (HPC)
[12] = dose: 200.0 mg/kg/injection, schedule: Q01DX009 (ip), vehicle: Klucel (hydroxypropylcellulose) (HPC)
[13] = dose: 400.0 mg/kg/injection, schedule: Q01DX009 (ip), vehicle: Klucel (hydroxypropylcellulose) (HPC)
[14] = dose: 100.0 mg/kg/injection, schedule: Q01DX009 (ip), vehicle: saline with Tween-80
[15] = dose: 100.0 mg/kg/injection, schedule: Q04DX003 (ip), vehicle: saline with Tween-80
[16] = dose: 200.0 mg/kg/injection, schedule: Q01DX009 (ip), vehicle: saline with Tween-80
[17] = dose: 200.0 mg/kg/injection, schedule: Q04DX003 (ip), vehicle: saline with Tween-80
[18] = dose: 400.0 mg/kg/injection, schedule: Q04DX003 (ip), vehicle: saline with Tween-80
[19] = dose: 50.0 mg/kg/injection, schedule: Q01DX009 (ip), vehicle: saline

For Nc1c(Cl)ncn2[nH]c(=O)nc12, the T/C (dose: 100.0 mg/kg/injection, schedule: Q01DX001 (ip), vehicle: carboxymethylcellulose (CMC)) was 96 % of control and the T/C (dose: 200.0 mg/kg/injection, schedule: Q01DX001 (ip), vehicle: carboxymethylcellulose (CMC)) was 100 % of control.

For CCCCOB(OCCCC)c1cccc(C(F)(F)F)c1, the T/C [1] was 100 % of control and the T/C [2] was 89 % of control.

For CCc1nc(NN)nc(CC)c1-c1ccccc1O, the T/C [3] was 105 % of control and the T/C [4] was 91 % of control.

In the case of CC(=O)[O][Pb]([O]C(C)=O)([c]1ccccc1)[c]1ccccc1, the T/C [3] is reported as 98 % of control, the T/C (dose: 100.0 mg/kg/injection, schedule: Q04DX002 (ip), vehicle: saline with Tween-80) is reported as 102 % of control and the T/C [4] is reported as 102 % of control. For the same compound, the T/C (dose: 200.0 mg/kg/injection, schedule: Q04DX002 (ip), vehicle: saline with Tween-80) was 102 % of control and the T/C (dose: 400.0 mg/kg/injection, schedule: Q04DX002 (ip), vehicle: Klucel (hydroxypropylcellulose) (HPC)) was 105 % of control.

For O=CN/N=C/c1cc(=O)[nH]c(=O)[nH]1, the T/C [5] was 87 % of control, the T/C [6] was 87 % of control and the T/C [7] was 93 % of control.

In the case of CCCC[P+](CCCC)(CCCC)CCCC, the T/C (dose: 5.0 mg/kg/injection, schedule: Q01DX001 (ip), vehicle: saline) is reported as 102 % of control, the T/C (dose: 6.25 mg/kg/injection, schedule: Q04DX002 (ip), vehicle: Klucel (hydroxypropylcellulose) (HPC)) is reported as 89 % of control and the T/C (dose: 10.0 mg/kg/injection, schedule: Q01DX001 (ip), vehicle: saline) is reported as 123 % of control. For the same compound, the T/C (dose: 12.5 mg/kg/injection, schedule: Q04DX002 (ip), vehicle: Klucel (hydroxypropylcellulose) (HPC)) was 103 % of control, the T/C (dose: 20.0 mg/kg/injection, schedule: Q01DX001 (ip), vehicle: saline) was 104 % of control and the T/C (dose: 25.0 mg/kg/injection, schedule: Q04DX002 (ip), vehicle: Klucel (hydroxypropylcellulose) (HPC)) was 95 % of control and 104 % of control.

For CCC[As](=O)(O)C(C)C, the T/C [8] was 97 % of control.

For CCOC(=O)N1C2c3ccccc3C3C(C21)N3C(=O)OCC (stereo not drawn), the T/C [5] was 105 % of control, the T/C [6] was 102 % of control and the T/C [7] was 108 % of control.

For C#CCC(C)OS(=O)(=O)c1ccc(C)cc1 (stereo not drawn), the T/C [5] was 98 % of control, the T/C [8] was 93 % of control and the T/C [6] was 102 % of control. For the same compound, the T/C [9] was 93 % of control, the T/C [7] was 98 % of control and the T/C [10] was 91 % of control.

With COc1cc(C(=O)Nc2cc(C(F)(F)F)ccc2Cl)cc(OC)c1OC the T/C [11] was 106 % of control, the T/C [12] was 100 % of control and the T/C [13] was 97 % of control.

With O=C(N/N=C/c1ccccc1O)c1ccccc1NC(=O)C1CC1 the T/C [11] was 104 % of control, the T/C [12] was 95 % of control and the T/C [13] was 101 % of control.

In the case of CC(=O)CC(OC(=O)c1cc([N+](=O)[O-])cc([N+](=O)[O-])c1)(C(F)(F)F)C(F)(F)F, the T/C (dose: 6.25 mg/kg/injection, schedule: Q01DX009 (ip), vehicle: Klucel (hydroxypropylcellulose) (HPC)) is reported as 93 % of control, the T/C (dose: 12.5 mg/kg/injection, schedule: Q01DX009 (ip), vehicle: Klucel (hydroxypropylcellulose) (HPC)) is reported as 88 % of control and the T/C (dose: 25.0 mg/kg/injection, schedule: Q01DX009 (ip), vehicle: Klucel (hydroxypropylcellulose) (HPC)) is reported as 88 % of control.

CCN=C(N)c1ccc(N=C(N)c2cccc(C(N)=Nc3ccc(C(N)=NCC)cc3)c2)cc1 was tested, and the T/C (dose: 3.75 mg/kg/injection, schedule: Q01DX Z (ip), vehicle: saline) was 104 % of control and the T/C (dose: 15.0 mg/kg/injection, schedule: Q01DX Z (ip), vehicle: saline) was 120 % of control.

In the case of COC(=O)C(CSCSC)NC(=O)/C=C/c1ccccc1Cl (stereo not drawn), the T/C (dose: 50.0 mg/kg/injection, schedule: Q01DX009 (ip), vehicle: saline with Tween-80) is reported as 97 % of control and 86 % of control, the T/C [14] is reported as 92 % of control and the T/C [15] is reported as 94 % of control. For the same compound, the T/C [16] was 93 % of control and 92 % of control, the T/C [17] was 91 % of control and the T/C [18] was 87 % of control.

In the case of CC(C)C(=O)C(C)(C)C, the T/C [5] is reported as 102 % of control, the T/C [6] is reported as 98 % of control and the T/C [7] is reported as 107 % of control.

With Nc1ncc[nH]1 the T/C [1] was 107 % of control, the T/C (dose: 100.0 mg/kg/injection, schedule: Q04DX002 (ip), vehicle: saline) was 90 % of control and the T/C [2] was 114 % of control. The T/C (dose: 200.0 mg/kg/injection, schedule: Q04DX002 (ip), vehicle: saline) was 93 % of control, the T/C (dose: 400.0 mg/kg/injection, schedule: Q01DX009 (ip), vehicle: saline) was 122 % of control and the T/C (dose: 400.0 mg/kg/injection, schedule: Q04DX002 (ip), vehicle: saline) was 90 % of control.

In the case of Nc1ccc(O)cc1, the T/C (dose: 12.5 mg/kg/injection, schedule: Q04DX003 (ip), vehicle: saline) is reported as 92 % of control, the T/C (dose: 25.0 mg/kg/injection, schedule: Q04DX003 (ip), vehicle: saline) is reported as 95 % of control and the T/C (dose: 35.0 mg/kg/injection, schedule: Q01DX Z (ip), vehicle: acid diluted with saline) is reported as 92 % of control. For the same compound, the T/C (dose: 35.0 mg/kg/injection, schedule: Q01DX Z (ip), vehicle: other) was 97 % of control, the T/C (dose: 40.0 mg/kg/injection, schedule: Q01DX Z (ip), vehicle: methylcellulose (MC)) was 113 % of control and the T/C (dose: 53.0 mg/kg/injection, schedule: Q01DX010 (sc), vehicle: saline) was 94 % of control. The T/C (dose: 53.0 mg/kg/injection, schedule: Q01DX Z (ip), vehicle: acid diluted with saline) was 104 % of control, the T/C (dose: 53.0 mg/kg/injection, schedule: Q01DX Z (ip), vehicle: other) was 103 % of control and the T/C (dose: 53.0 mg/kg/injection, schedule: Q01DX Z (ip), vehicle: saline) was 98 % of control. For the same compound, the T/C (dose: 80.0 mg/kg/injection, schedule: Q01DX Z (ip), vehicle: acid diluted with saline) was 108 % of control, the T/C (dose: 80.0 mg/kg/injection, schedule: Q01DX Z (ip), vehicle: other) was 101 % of control and the T/C (dose: 80.0 mg/kg/injection, schedule: Q01DX Z (ip), vehicle: saline) was 114 % of control. The T/C (dose: 120.0 mg/kg/injection, schedule: Q01DX010 (sc), vehicle: saline) was 98 % of control, the T/C (dose: 120.0 mg/kg/injection, schedule: Q01DX Z (ip), vehicle: acid diluted with saline) was 115 % of control and the T/C (dose: 120.0 mg/kg/injection, schedule: Q01DX Z (ip), vehicle: other) was 114 % of control. For the same compound, the T/C (dose: 120.0 mg/kg/injection, schedule: Q01DX Z (ip), vehicle: saline) was 112 % of control, the T/C (dose: 160.0 mg/kg/injection, schedule: Q01DX Z (oral), vehicle: methylcellulose (MC)) was 113 % of control and the T/C (dose: 212.0 mg/kg/injection, schedule: Q01DX013 (oral), vehicle: saline) was 109 % of control. The T/C (dose: 320.0 mg/kg/injection, schedule: Q01DX Z (ip), vehicle: methylcellulose (MC)) was 107 % of control and the T/C (dose: 320.0 mg/kg/injection, schedule: Q01DX Z (oral), vehicle: methylcellulose (MC)) was 108 % of control.

In the case of O=C(NC(=S)N1CC1)c1ccccc1, the T/C (dose: 100.0 mg/kg/injection, schedule: Q04DX002 (sc), vehicle: olive oil, sesame oil, peanut oil) is reported as 100 % of control, the T/C (dose: 200.0 mg/kg/injection, schedule: Q04DX002 (sc), vehicle: olive oil, sesame oil, peanut oil) is reported as 103 % of control and the T/C (dose: 400.0 mg/kg/injection, schedule: Q04DX002 (sc), vehicle: olive oil, sesame oil, peanut oil) is reported as 100 % of control.

For NC(CCC(=O)NC(CSC(c1ccccc1)(c1ccccc1)c1ccc(F)cc1)C(=O)NCC(=O)O)C(=O)O (stereo not drawn), the T/C (dose: 25.0 mg/kg/injection, schedule: Q01DX009 (ip), vehicle: saline) was 124 % of control, the T/C (dose: 50.0 mg/kg/injection, schedule: Q01DX009 (ip), vehicle: other) was 116 % of control and the T/C [19] was 118 % of control. For the same compound, the T/C [2] was 152 % of control.

With CCOC(=O)C(N)CSCc1ccccc1 (stereo not drawn) the T/C [14] was 97 % of control, the T/C [16] was 92 % of control and the T/C (dose: 400.0 mg/kg/injection, schedule: Q01DX009 (ip), vehicle: saline with Tween-80) was 97 % of control.

CC12CC3CC(Br)(C1)CC(C(=O)O)(C3)C2 (stereo not drawn) was tested, and the T/C [19] was 103 % of control, the T/C [1] was 96 % of control and the T/C [8] was 103 % of control. For the same compound, the T/C [2] was 91 % of control, the T/C [9] was 101 % of control and the T/C [10] was 110 % of control.

CCC(CC)(CC)c1ccc2ccccc2c1 was tested, and the T/C [5] was 98 % of control, the T/C [6] was 96 % of control and the T/C [7] was 106 % of control.

OCC1OC(c2ccccc2)OC2C(CO)OC(c3ccccc3)OC12 (stereo not drawn) was tested, and the T/C [15] was 93 % of control, the T/C [17] was 96 % of control and the T/C [18] was 89 % of control.
